Read-outs that look alike come from different tables or passages of the source.
Target: T1, hROMK (hKir1.1) (Homo sapiens, UniProt P48048)
T1 construct: expressed in transfected cells
T1 sequence (P48048 1-391): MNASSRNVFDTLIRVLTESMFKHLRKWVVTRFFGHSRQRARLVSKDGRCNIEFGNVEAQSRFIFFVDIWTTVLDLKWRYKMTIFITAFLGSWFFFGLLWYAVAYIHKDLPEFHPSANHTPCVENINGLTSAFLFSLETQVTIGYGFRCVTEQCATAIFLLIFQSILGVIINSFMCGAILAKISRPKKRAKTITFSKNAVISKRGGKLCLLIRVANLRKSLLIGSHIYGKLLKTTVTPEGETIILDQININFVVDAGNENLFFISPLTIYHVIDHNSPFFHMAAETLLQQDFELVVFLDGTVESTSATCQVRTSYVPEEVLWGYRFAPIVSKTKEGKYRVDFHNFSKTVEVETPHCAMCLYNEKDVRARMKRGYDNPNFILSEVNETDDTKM
Assay: Thallium Flux Assay
Type: cell-based
Description: Several assays may be used to measure functional inhibition of the ROMK channel by compounds of the instant invention. One assay that was used to test the activity of compounds in the Examples is the functional ^86Rb^+ efflux assay described below, that measures the ability of ROMK to permeate ^86Rb^+, in the absence or presence of test compound. Under control conditions, cells loaded with ^86Rb^+ and incubated in Rb^+-free medium display a time-dependent efflux of the isotope, the rate of which depends on number of functional channels. When cells are incubated in the presence of a channel inhibitor, efflux of ^86Rb^+ is prevented in a concentration-dependent manner, and IC50 values of inhibition by compounds can be accurately determined. This assay has been established with cell lines expressing either human, rat or dog ROMK channels, and can operate in 96- or 384-well format. Importantly, the human, rat, and dog ^86Rb^+ efflux assays can be carried out in the presence of up to 100% serum allowing, therefore, an accurate estimation of the effect of protein binding on the inhibitory activity of compounds of interest. Another ROMK functional assay used to test the activity of compounds in the Examples (described below) makes use of the ability of thallium to permeate through open ROMK channels and increase the fluorescence of a dye previously loaded into the cells. Under control conditions, cells loaded with dye and exposed to thallium-containing medium display a time-dependent increase in fluorescence, the rate of which depends on number of functional channels. When cells are incubated in the presence of a channel inhibitor, the increase in fluorescence is attenuated in a concentration-dependent manner, and IC50 values of inhibition by compounds can be accurately determined. This assay has been established with cell lines expressing either human, or rat ROMK channels, and operates in 384-well format.
HEK293 cells stably expressing hROMK (hKir1.1) were grown at 37° C. in a 10% CO2 humidified incubator in complete growth media: Dulbecco's Modified Eagle Medium supplemented with non-essential amino acids, Penicillin/Streptomycin/Glutamine, G418 and FBS. At >80% confluency, aspirate the media from the flask and rinse with 10 mL Calcium/Magnesium-free PBS. Add 5 mL of 1× trypsin (prepared in Ca/Mg Free PBS) to T-225 flask and return flask to 37° C./CO2 incubator for 2-3 minutes. To dislodge the cell, gently bang the side of the flask with your hand. Triturate the cells completely and then transfer the cells to 25 mL complete media. Centrifuge at 1,500 rpm for 6 min followed by resuspension in complete growth media and determine cell concentration. For typical re-seeding, 4E6 cells/T-225 flask will attain >80% confluency in 4 days. Under ideal growth conditions and appropriate tissue culture practices, this cell line is stable for 40-45 passages.
• FluxOR™ Reagent (Component A) • FluxOR™ Assay Buffer (Component B)—10× Concentrate • PowerLoad™ Concentrate (Component C)—100× Concentrate • Probenecid (Component D)—Lyophilized sample is kept at −20° C. Water soluble, 100× after solubilization in 1 mL water. […] Store at 4° C. • Thallium sulfate (Tl2SO4) Concentrate (Component G)—50 mM in water. […]

[1] = HEK293 cells stably expressing hROMK, FLIPR-Tetra, 384 wells, read-out: Thallium Flux IC50

| IC50 [1] [nM] | potency in the Thallium Flux Assay compared with Isomer A (text of Example 55, separated stereo-isomers) | IC50 (text of Example 55, separated stereo-isomer, read-out: IC50 in the Thallium Flux Assay) [nM] | Structure (SMILES) |
| --- | --- | --- | --- |
| 660 |  |  | Cc1c(CCN2CCN(C[C@@H](O)c3ccc4c(c3C)COC4=O)CC2=O)ccc2c1COC2=O [Example 53, 4-[(2S)-2-hydroxy-2-(4-methyl-1-oxo-1,3-dihydro-2-benzofuran-5-yl)ethyl]-1-[2-(4-methyl-1-oxo-1,3-dihydro-2-benzofuran-5-yl)ethyl]piperazin-2-one] |
| 310 | more potent |  | Cc1c(C(O)CN2CCN(CCc3ccc(C#N)cn3)C(=O)C2)ccc2c1COC2=O (single isomer, unassigned) [Example 55, 6-(2-{4-[2-Hydroxy-2-(4-methyl-1-oxo-1,3-dihydro-2-benzofuran-5-yl)ethyl]-2-oxopiperazin-1-yl}ethyl)pyridine-3-carbonitrile] |
| 270 |  |  | Cc1c(C(O)CN2CCN(C[C@@H](O)c3ccc4c(c3C)COC4=O)CC2=O)ccc2c1COC2=O (stereo partly drawn) [Example 46, 4-[(2S)-2-Hydroxy-2-(4-methyl-1-oxo-1,3-dihydro-2-benzofuran-5-yl)ethyl]-1-[2-hydroxy-2-(4-methyl-1-oxo-1,3-dihydro-2-benzofuran-5-yl)ethyl]piperazin-2-one] |
|  |  | > 1000 | Cc1c(C(O)CN2CCN(CCc3ccc(C#N)cn3)C(=O)C2)ccc2c1COC2=O (single isomer, unassigned) [Isomer A, 6-(2-{4-[2-Hydroxy-2-(4-methyl-1-oxo-1,3-dihydro-2-benzofuran-5-yl)ethyl]-2-oxopiperazin-1-yl}ethyl)pyridine-3-carbonitrile] |
| 780 |  |  | Cc1c(CCN2CCN(CCc3ccc(C#N)cn3)C(=O)C2)ccc2c1COC2=O [Example 54, 6-(2-{4-[2-(4-Methyl-1-oxo-1,3-dihydro-2-benzofuran-5-yl)ethyl]-2-oxopiperazin-1-yl}ethyl)pyridine-3-carbonitrile] |
| 235 |  |  | Cc1c(CCN2CCN(C[C@H](O)c3ccc4c(c3C)COC4=O)CC2=O)ccc2c1COC2=O [Example 52, 4-[(2R)-2-hydroxy-2-(4-methyl-1-oxo-1,3-dihydro-2-benzofuran-5-yl)ethyl]-1-[2-(4-methyl-1-oxo-1,3-dihydro-2-benzofuran-5-yl)ethyl]piperazin-2-one] |
| 680 |  |  | Cc1c(C(O)CN2CCN(C[C@H](O)c3ccc4c(c3C)COC4=O)CC2=O)ccc2c1COC2=O (stereo partly drawn) [Example 45, 4-[(2R)-2-Hydroxy-2-(4-methyl-1-oxo-1,3-dihydro-2-benzofuran-5-yl)ethyl]-1-[2-hydroxy-2-(4-methyl-1-oxo-1,3-dihydro-2-benzofuran-5-yl)ethyl]piperazin-2-one] |
| 125 |  |  | Cc1c(C(=O)CN2CCN(C[C@H](O)c3ccc4c(c3C)COC4=O)CC2=O)ccc(F)c1C#N [Example 51, 6-Fluoro-3-({4-[(2R)-2-hydroxy-2-(4-methyl-1-oxo-1,3-dihydro-2-benzofuran-5-yl)ethyl]-2-oxopiperazin-1-yl}acetyl)-2-methylbenzonitrile] |
| 60 |  |  | Cc1c([C@@H](O)CN2CCN(C3CCc4cc(C#N)ccc4C3)C(=O)C2)ccc2c1COC2=O (stereo partly drawn) [Example 47, 6-{4-[(2R)-2-Hydroxy-2-(4-methyl-1-oxo-1,3-dihydro-2-benzofuran-5-yl)ethyl]-2-oxopiperazin-1-yl}-5,6,7,8-tetrahydronaphthalene-2-carbonitrile] |
| 80 |  |  | Cc1c(C(=O)CN2CCN(C[C@H](O)c3ccc4c(c3C)COC4=O)CC2=O)ccc2c1COC2=O [Example 48, 4-[(2R)-2-Hydroxy-2-(4-methyl-1-oxo-1,3-dihydro-2-benzofuran-5-yl)ethyl]-1-[2-(4-methyl-1-oxo-1,3-dihydro-2-benzofuran-5-yl)-2-oxoethyl]piperazin-2-one] |
| 90 |  |  | Cc1cc2c(cc1C(O)CN1CCN(C3CCc4cc(C#N)ccc4C3)C(=O)C1)COC2=O (stereo not shown) [Example 49, 6-{4-[2-Hydroxy-2-(6-methyl-1-oxo-1,3-dihydro-2-benzofuran-5-yl)ethyl]-2-oxopiperazin-1-yl}-5,6,7,8-tetrahydronaphthalene-2-carbonitrile] |
| 197 |  |  | COc1ccc(C(=O)CN2CCN(C[C@H](O)c3ccc4c(c3C)COC4=O)CC2=O)c(C)c1C#N [Example 50, 3-({4-[(2R)-2-Hydroxy-2-(4-methyl-1-oxo-1,3-dihydro-2-benzofuran-5-yl)ethyl]-2-oxopiperazin-1-yl}acetyl)-6-methoxy-2-methylbenzonitrile] |

From patent publication US8999990B2, “Inhibitors of the renal outer medullary potassium channel” (Merck Sharp & Dohme Corp., priority 2011, dated 2015)
